Measured values from US8575158B2, “1-phenyl-substituted heterocyclyl derivatives and their use as prostaglandin D2 receptor modulators” (Actelion Pharmaceuticals Ltd., priority 2010, dated 2013).

Each compound was assayed against T1, hCRTH2 receptor (Homo sapiens, UniProt Q9Y5Y4) (assay: Radioligand displacement assay (3H-PGD2) on hCRTH2 receptor membranes). Details: antagonistic activity; 3H-PGD2 displacement on HEK293-hCRTH2 membrane fragments.
T1 construct: expressed in transfected cells; host or cells: HEK293
T1 sequence (Q9Y5Y4 1-395): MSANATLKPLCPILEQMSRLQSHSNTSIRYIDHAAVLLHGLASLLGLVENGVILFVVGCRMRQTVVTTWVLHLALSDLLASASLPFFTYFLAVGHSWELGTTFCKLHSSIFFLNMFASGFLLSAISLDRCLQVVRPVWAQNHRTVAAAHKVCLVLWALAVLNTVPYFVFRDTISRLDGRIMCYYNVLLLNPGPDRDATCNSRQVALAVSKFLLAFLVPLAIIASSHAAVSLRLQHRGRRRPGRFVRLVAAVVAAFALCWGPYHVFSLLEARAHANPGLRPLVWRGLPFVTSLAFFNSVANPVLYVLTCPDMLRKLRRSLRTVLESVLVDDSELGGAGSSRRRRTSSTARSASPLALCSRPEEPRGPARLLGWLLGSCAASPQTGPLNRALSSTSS
Assay type: binding

IC50 [nM] | Structure (SMILES)
31 | O=C(O)COc1ccc(F)cc1C1c2ccccc2CCN1C(=O)NCCc1ccccc1 (racemic) [Example 200]
21 | COc1ccccc1CNC(=O)N1CCc2ccccc2C1c1cc(F)ccc1OCC(=O)O (racemic) [Example 201]
7.29 | COc1ccccc1CNC(=O)N1CCc2ccccc2C1c1cc(Cl)ccc1OCC(=O)O (racemic) [Example 202]
27.9 | O=C(O)COc1ccc(F)cc1C1c2ccccc2CCN1C(=O)NCc1ccccc1Cl (racemic) [Example 203]
83 | O=C(O)COc1ccc(F)cc1C1c2ccccc2CCN1C(=O)NCCc1ccccc1Cl (racemic) [Example 204, (±)-(2-{2-[2-(2-Chloro-phenyl)-ethylcarbamoyl]-1,2,3,4-tetrahydro-isoquinolin-1-yl}-4-fluoro-phenoxy)-acetic acid]
928 | O=C(O)COc1ccc(F)cc1C1c2ccccc2CCN1C(=O)CNS(=O)(=O)c1ccccc1 (racemic) [Example 205]
819 | Cc1noc(C)c1S(=O)(=O)NCC(=O)N1CCc2ccccc2C1c1cc(F)ccc1OCC(=O)O (racemic) [Example 206]
347 | O=C(O)COc1ccc(F)cc1C1c2ccccc2CCN1C(=O)CNS(=O)(=O)c1cccc(F)c1 (racemic) [Example 207]
983 | O=C(O)COc1ccc(F)cc1C1c2ccccc2CCN1C(=O)CNS(=O)(=O)c1ccccc1F (racemic) [Example 208]
644 | O=C(O)COc1ccc(F)cc1C1c2ccccc2CCN1C(=O)CNS(=O)(=O)c1ccc(F)c(F)c1 (racemic) [Example 209]
423 | CN(CC(=O)N1CCc2ccccc2C1c1cc(F)ccc1OCC(=O)O)S(=O)(=O)c1ccccc1 (racemic) [Example 210]
261 | CN(CC(=O)N1CCc2ccccc2C1c1cc(F)ccc1OCC(=O)O)S(=O)(=O)c1cccc(F)c1 (racemic) [Example 211]
920 | CN(CC(=O)N1CCc2ccccc2C1c1cc(F)ccc1OCC(=O)O)S(=O)(=O)c1ccc(F)c(F)c1 (racemic) [Example 212]
344 | NC(=O)c1ccc(OCC(=O)O)c(C2c3ccccc3CCN2C(=O)OCc2ccccc2)c1 (racemic) [Example 213, (±)-1-(5-Carbamoyl-2-carboxymethoxy-phenyl)-3,4-dihydro-1H-isoquinoline-2-carboxylic acid benzyl ester]
147 | O=C(O)COc1ccc(-c2noc(=S)[nH]2)cc1C1c2ccccc2CCN1C(=O)OCc1ccccc1 (racemic) [Example 214, (±)-1-[2-Carboxymethoxy-5-(5-thioxo-4,5-dihydro-[1,2,4]oxadiazol-3-yl)-phenyl]-3,4-dihydro-1H-isoquinoline-2-carboxylic acid benzyl ester]
27 | O=C(O)COc1cc(F)ccc1C1c2ccccc2CCN1C(=O)OCc1ccccc1 (racemic) [Example 215, (±)-1-(2-Carboxymethoxy-4-fluoro-phenyl)-3,4-dihydro-1H-isoquinoline-2-carboxylic acid benzyl ester]
182 | O=C(O)COc1cccc(F)c1C1c2ccccc2CCN1C(=O)OCc1ccccc1 (racemic) [Example 216, (±)-1-(2-Carboxymethoxy-6-fluoro-phenyl)-3,4-dihydro-1H-isoquinoline-2-carboxylic acid benzyl ester]
110 | O=C(O)CCCOc1ccc(F)cc1C1c2ccccc2CCN1C(=O)OCc1ccccc1 (racemic) [Example 217, (±)-1-[2-(3-Carboxy-propoxy)-5-fluoro-phenyl]-3,4-dihydro-1H-isoquinoline-2-carboxylic acid benzyl ester]
13.4 | N#Cc1ccc(OCC(=O)O)c(C2c3ccccc3CCN2C(=O)[C@@H]2C[C@H]2c2ccccc2)c1 (mixture of isomers) [Example 218, (±)-{4-Cyano-2-[2-(trans-2-phenyl-cyclopropanecarbonyl)-1,2,3,4-tetrahydro-isoquinolin-1-yl]-phenoxy}-acetic acid]
4.72 | N#Cc1ccc(OCC(=O)O)c(C2c3ccccc3CCN2C(=O)OCc2ccccc2)c1 (racemic) [Example 219, (±)-1-(2-Carboxymethoxy-5-cyano-phenyl)-3,4-dihydro-1H-isoquinoline-2-carboxylic acid benzyl ester]
141 | CS(=O)(=O)Nc1cccc2c1CCN(C(=O)OCc1ccccc1)C2c1cc(F)ccc1OCC(=O)O (racemic) [Example 222, (±)-1-(2-Carboxymethoxy-5-fluoro-phenyl)-5-methanesulfonylamino-3,4-dihydro-1H-isoquinoline-2-carboxylic acid benzyl ester]
7.01 | O=C(O)COc1ccc(-n2ccnn2)cc1C1c2ccccc2CCN1C(=O)OCc1ccccc1 (racemic) [Example 223, (±)-1-(2-Carboxymethoxy-5-[1,2, 3]triazol-1-yl-phenyl)-3,4-dihydro-1H-isoquinoline-2-carboxylic acid benzyl ester]
12.7 | O=C(O)COc1ccc(-n2nccn2)cc1C1c2ccccc2CCN1C(=O)OCc1ccccc1 (racemic) [Example 224, (±)-1-(2-Carboxymethoxy-5-[1,2, 3]triazol-2-yl-phenyl)-3,4-dihydro-1H-isoquinoline-2-carboxylic acid benzyl ester]
76.5 | COc1ccccc1CNC(=S)N1CCc2ccccc2C1c1cc(Cl)ccc1OCC(=O)O (racemic) [Example 225, (±)-{4-Chloro-2-[2-(2-methoxy-benzylthiocarbamoyl)-1,2,3,4-tetrahydro-isoquinolin-1-yl]-phenoxy}-acetic acid]
5.23 | O=C(O)COc1ccc(Cl)cc1C1c2ccc(F)cc2CCN1C(=O)OCc1ccccc1 (racemic) [Example 226, (±)-1-(2-Carboxymethoxy-5-chloro-phenyl)-6-fluoro-3,4-dihydro-1H-isoquinoline-2-carboxylic acid benzyl ester]
7.21 | O=C(O)COc1ccc(Cl)cc1C1c2ccccc2CCN1C(=O)OCc1ccccc1Br (racemic) [Example 227]

IC50 [nM] | Structure (SMILES)
12.8 | O=C(O)COc1ccc(Cl)cc1C1c2ccccc2CN1C(=O)OCc1ccccc1 (racemic) [Example 230]
4.55 | COc1ccccc1COC(=O)N1CCc2ccccc2C1c1cc(Cl)ccc1OCC(=O)O (racemic) [Example 233]
3.61 | O=C(O)COc1ccc(Cl)cc1C1c2ccccc2CCN1C(=O)OCc1ccccc1F (racemic) [Example 234]
5.62 | Cc1ccccc1COC(=O)N1CCc2ccccc2C1c1cc(Cl)ccc1OCC(=O)O (racemic) [Example 235]
5.59 | O=C(O)COc1ccc(Cl)cc1C1c2ccccc2CCN1C(=O)OCc1ccccc1C(F)(F)F (racemic) [Example 236]
4.02 | COc1cccc(COC(=O)N2CCc3ccccc3C2c2cc(Cl)ccc2OCC(=O)O)c1 (racemic) [Example 237]
12.6 | O=C(O)COc1ccc(Cl)cc1C1c2ccccc2CCN1C(=O)OCc1cccc(F)c1 (racemic) [Example 238]
17.7 | Cc1cccc(COC(=O)N2CCc3ccccc3C2c2cc(Cl)ccc2OCC(=O)O)c1 (racemic) [Example 239]
18.6 | O=C(O)COc1ccc(Cl)cc1C1c2ccccc2CCN1C(=O)OCc1cccc(C(F)(F)F)c1 (racemic) [Example 240]
0.96 | O=C(O)COc1ccc(Cl)cc1C1c2ccccc2CCN1C(=O)OCc1ccc(Cl)cc1Cl (racemic) [Example 241]
1.07 | O=C(O)COc1ccc(Cl)cc1C1c2ccccc2CCN1C(=O)OCc1cccc(Cl)c1Cl (racemic) [Example 242]
6.48 | O=C(O)COc1ccc(Cl)cc1C1c2ccccc2CCN1C(=O)OCc1c(Cl)cccc1Cl (racemic) [Example 243]
7.67 | COc1cccc(OC)c1COC(=O)N1CCc2ccccc2C1c1cc(Cl)ccc1OCC(=O)O (racemic) [Example 244]
2.87 | Cc1ccc(COC(=O)N2CCc3ccccc3C2c2cc(Cl)ccc2OCC(=O)O)c(C)c1 (racemic) [Example 245]
3.43 | Cc1cccc(COC(=O)N2CCc3ccccc3C2c2cc(Cl)ccc2OCC(=O)O)c1C (racemic) [Example 246]
17.3 | Cc1cccc(C)c1COC(=O)N1CCc2ccccc2C1c1cc(Cl)ccc1OCC(=O)O (racemic) [Example 247]
3.3 | O=C(O)COc1ccc(Cl)cc1C1c2ccccc2CCN1C(=O)OCc1ccc(F)cc1F (racemic) [Example 248]
3.86 | O=C(O)COc1ccc(Cl)cc1C1c2ccccc2CCN1C(=O)OCc1cccc(F)c1F (racemic) [Example 249]
6.84 | O=C(O)COc1ccc(Cl)cc1C1c2ccccc2CCN1C(=O)OCc1c(F)cccc1F (racemic) [Example 250]
12.3 | Cc1cc(C)c(COC(=O)N2CCc3ccccc3C2c2cc(Cl)ccc2OCC(=O)O)c(C)c1 (racemic) [Example 251]
3.98 | O=C(O)COc1ccc(Cl)cc1C1c2ccccc2CCN1C(=O)OCc1c(F)cccc1Cl (racemic) [Example 252]
6.52 | O=C(O)COc1ccc(Cl)cc1C1c2ccccc2CCN1C(=O)OCc1cc(Cl)ccc1Cl (racemic) [Example 253]
16 | COc1ccc(COC(=O)N2CCc3ccccc3C2c2cc(Cl)ccc2OCC(=O)O)c(OC)c1 (racemic) [Example 254]
4.9 | COc1cccc(COC(=O)N2CCc3ccccc3C2c2cc(Cl)ccc2OCC(=O)O)c1OC (racemic) [Example 255]
14.1 | Cc1ccc(COC(=O)N2CCc3ccccc3C2c2cc(Cl)ccc2OCC(=O)O)c(C)n1 (racemic) [Example 256]
5.72 | N#Cc1cccc(COC(=O)N2CCc3ccccc3C2c2cc(Cl)ccc2OCC(=O)O)c1 (racemic) [Example 257]
